Patent US12285490B2, “ASH1L degraders and methods of treatment therewith” (The Regents of the University of Michigan, priority 2017, dated 2025)

Assays:
[1] = system: acute leukemia cell lines; test: Cell viability / proliferation in various acute leukemia cell lines; assay type: cell-based, human; conditions: after 7 days of treatment
Description: (§1) Human leukemia cells were plated at 1×10^5 cells/ml in 24-well plates, treated with 0.25% DMSO or compounds and cultured at 37° C. for 7-14 days. Every four days, the volume corresponding to 1×10^5 cells of DMSO-treated cells was spun down and resuspended in fresh media with fresh compound. At day 0 and each four day interval, 100 μl aliquots of the cell suspension were transferred to 96-well plates in quadruplicates. The quadruplicate samples were incubated for 3-4 days at 37° C., and then an MTI cell proliferation assay kit (Roche) was used to measure viable cells. Absorbance was read at 570 nm using a PHERAstar (BMG) microplate reader.

ASH1L = target: T1, ASH1L (Homo sapiens, UniProt Q9NR48); test: Western blot of ASH1L degradation in HeLa cells; assay type: cell-based
T1 construct: endogenous in cells; host or cells: HeLa cells
Description: The 2.5×10^5 HeLa cells were treated with compounds for 24 h followed by the lysis in the RIPA buffer. The protein samples were loaded and run in the 3-8% Tris-acetate gel. After transferring proteins to the PVDF membrane, 5% bovine serum albumin solution was used for blocking for 2 h at room temperature. The membranes were incubated with the ASH1L-specific antibody (Bethyl A301-749A) at 4° C. overnight and subsequently with the anti-rabbit secondary antibody (Cell signaling technology, 7074S). The blots were detected by an ECL detection system (Amersham, RPN2236).

[2] = system: MLL fusion target genes in MV4:11 MLL leukemia cell line; test: Quantitative RT-PCR gene expression in MV4:11 cells; assay type: cell-based, human; conditions: after 7 days of treatment
Description: (§2) Total RNA was extracted from cells using the RNeasy mini kit (QIAGEN), and then 100-2000 ng of total RNA was reverse transcribed using the High Capacity cDNA Reverse Transcription Kit (Applied Biosystems) according to the manufacturer's protocol. Real-time PCR was performed using a CFX96 Real-Time PCR Detection System (Biorad). TaqMan Gene Expression Master Mix and TaqMan Gene Expression Assays were purchased from Thermo Fisher. Relative quantification of each gene transcript was carried out using the ΔΔCt method as described in the Biorad Real-Time PCR Applications Guide.

[3] = system: acute leukemia cell lines; test: Differentiation of leukemia cells (Cytospin/Wright-Giemsa staining); assay type: cell-based, human; conditions: after 7 days of treatment
Description: 1×10^5 of leukemia cells treated with compounds or DMSO were harvested and placed in a Shandon EZ Single Cytofunnel (Thermo Fisher). Samples were centrifuged at 600 rpm for 5 min. The slides were air dried before staining with a Hema-3 kit (Thermo Fisher).

K562 control cell line = test: Cell viability assay (MTT) in K562 control cell line; assay type: cell-based; conditions: Homo sapiens, 168 h, after 7 days of treatment
Description: as §1

[4] = system: MV4:11 xenotransplantation model; test: In vivo efficacy in MV4:11 xenotransplantation model; conditions: MV4:11 xenotransplantation model in mice, 25 mg/kg, i.p., q.d., 17 days of treatment
Source text: Exemplary compounds disclosed herein, were used for in vivo studies in mice. Immunocompromised 8-10 week-old female NSG mice were used for in vivo efficacy studies in accordance with IACUC guidelines. Luciferase expressing human MV4:11 leukemia cells (MV4:11-luc) were engrafted intravenously via tail vein injection (1×10^7 cells/animal). Five days after transplantation mice were randomly assigned to a vehicle control or a compound treatment group (6-7 animals per group). Animals in each of the treatment groups were administered vehicle or compound A of the present disclosure by intraperitoneal (i.p.) injection. Treatment was continued for 17 days. Body weight was measured daily, while mean luminescence signal was measured in all mice at days 10 and 17 after initiating the treatment. […]

MOLM13 = test: Cell viability assay (MTT) in MOLM13 cells; assay type: cell-based; conditions: Homo sapiens, MOLM-13, 168 h; MOLM13, after 7 days of treatment
Description: as §1

MV4:11 = test: Cell viability assay (MTT) in MV4:11 cells; assay type: cell-based; conditions: Homo sapiens, 168 h; MV4:11, after 7 days of treatment
Description: as §1

[5] = system: MLL fusion protein target genes in MOLM13 leukemia cell line; test: Quantitative RT-PCR gene expression in MOLM13 cells; assay type: cell-based, human; conditions: after 6 days of treatment at 150 nM
Description: as §2

KOPN8 = test: Cell viability assay (MTT) in KOPN8 cells; assay type: cell-based; conditions: Homo sapiens, KOPN-8, 168 h; KOPN8, after 7 days of treatment
Description: as §1

| Compound | Cell proliferation / viability [1] | Degradation of ASH1L (ASH1L; FIG. 1, Western blot) | Expression of MLL fusion target genes [2] | Differentiation [3] | GI50 (K562 control cell line) | Leukemia progression in vivo (bioluminescence signal, hCD45+ cells) [4] | GI50 (MOLM13) | GI50 (MV4:11) | Expression of MLL fusion protein target genes [5] | GI50 (KOPN8) | Degradation of ASH1L (ASH1L; HeLa cells, after 24 h of treatment, FIG. 4 Panel A) |
| --- | --- | --- | --- | --- | --- | --- | --- | --- | --- | --- | --- |
| NC(=S)c1cccc(-c2cn(CC(CF)CF)c3cc(NC(=O)CCOCCOCCOCCOc4cccc5c4C(=O)N(C4CCC(=O)NC4=O)C5=O)ccc23)c1 (stereo not drawn) [Compound 1, N-(3-(3-carbamothioylphenyl)-1-(3-fluoro-2-(fluoromethyl)propyl)-1H-indol-6-yl)-3-(2-(2-(2-((2-(2,6-dioxopiperidin-3-yl)-1,3-dioxoisoindolin-4-yl)oxy)ethoxy)ethoxy)ethoxy)propanamide] | selectively blocks proliferation | Degradation of Ash1L induced | downregulates expression of MLL fusion target genes | induces differentiation | – | – | – | – | – | – | – |
| NC(=S)c1cccc(-c2cn(C3CCC(F)(F)CC3)c3cc(NC(=O)CCCCCCCCNC(=O)COc4cccc5c4C(=O)N(C4CCC(=O)NC4=O)C5=O)ccc23)c1 (stereo not drawn) [Compound 24, N-(3-(3-carbamothioylphenyl)-1-(4,4-difluorocyclohexyl)-1H-indol-6-yl)-9-(2-((2-(2,6-dioxopiperidin-3-yl)-1,3-dioxoisoindolin-4-yl)oxy)acetamido)nonanamide] | inhibits viability | – | – | – | > 6 µM | blocks leukemia progression | 0.052 µM | 0.062 µM | downregulates the expression of MLL fusion protein target genes | 0.103 µM | induces degradation of ASH1L |
